Data taken from the supplement of paper PMC10307832.

Assays:
Assay in all cases: relative viability (nuclei count vs DMSO), 5 days (fraction); higher = more cells survive
NCI-H1793 = system: NCI-H1793
How it was run: (§1)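 Relative viability is defined as nuclei in treated wells over nuclei in vehicle wells. Duplicate plates were run and medians reported. Lung cancer cell lines in 1536-well plates were dosed by pin tool one day after seeding, with one drug or with a fixed anchor-drug dose plus five library-drug doses (not always all listed) in √10 steps, and nuclei were counted after 5 days.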

NCI-H1915 = system: NCI-H1915
How it was run: as §1

LCLC-97TM1 = system: LCLC-97TM1
How it was run: as §1

A-427 = system: A-427
How it was run: as §1

NCI-H460 = system: NCI-H460
How it was run: as §1

NCI-H322M = system: NCI-H322M
How it was run: as §1

NCI-H23 = system: NCI-H23
How it was run: as §1

NCI-H1755 = system: NCI-H1755
How it was run: as §1

NCI-H1666 = system: NCI-H1666
How it was run: as §1

SK-LU-1 = system: SK-LU-1
How it was run: as §1

PC-3 [JPC-3] = system: PC-3 [JPC-3]
How it was run: as §1

LU99A = system: LU99A
How it was run: as §1

NCI-H2126 = system: NCI-H2126
How it was run: as §1

LOU-NH91 = system: LOU-NH91
How it was run: as §1

LXF-289 = system: LXF-289
How it was run: as §1

BEN = system: BEN
How it was run: as §1

NCI-H1395 = system: NCI-H1395
How it was run: as §1

NCI-H650 = system: NCI-H650
How it was run: as §1

NCI-H2023 = system: NCI-H2023
How it was run: as §1

NCI-H2170 = system: NCI-H2170
How it was run: as §1

HARA = system: HARA
How it was run: as §1

NCI-H1944 = system: NCI-H1944
How it was run: as §1

**Q.** What does the source list for O=C(O)CCCCC(CCSCc1ccccc1)SCc1ccccc1 (centres undefined) [CPI-613] + CS(=O)(=O)CCNCc1ccc(-c2ccc3ncnc(Nc4ccc(OCc5cccc(F)c5)c(Cl)c4)c3c2)o1 [Lapatinib] (partner 2 µM)?
**A.** relative viability (NCI-H1793; first compound 5 µM): 0.683; relative viability (NCI-H1793; first compound 50 µM): 0.732; relative viability (NCI-H1793; first compound 158.11 µM): 0.306; relative viability (NCI-H1793; first compound 500 µM): 0.0696; relative viability (NCI-H1915; first compound 5 µM): 0.948; relative viability (NCI-H1915; first compound 15.81 µM): 1.02; relative viability (NCI-H1915; first compound 50 µM): 0.948; relative viability (NCI-H1915; first compound 158.11 µM): 0.873; relative viability (NCI-H1915; first compound 500 µM): 0.832; relative viability (LCLC-97TM1; first compound 5 µM): 1.19; relative viability (LCLC-97TM1; first compound 15.81 µM): 0.906; relative viability (LCLC-97TM1; first compound 50 µM): 1.07; relative viability (LCLC-97TM1; first compound 158.11 µM): 1.01; relative viability (LCLC-97TM1; first compound 500 µM): 0.0553; relative viability (A-427; first compound 5 µM): 0.974; relative viability (A-427; first compound 15.81 µM): 0.94; relative viability (A-427; first compound 50 µM): 1.07; relative viability (A-427; first compound 158.11 µM): 0.996; relative viability (A-427; first compound 500 µM): 0.948; relative viability (NCI-H460; first compound 5 µM): 0.87; relative viability (NCI-H460; first compound 15.81 µM): 0.853; relative viability (NCI-H460; first compound 50 µM): 0.838; relative viability (NCI-H460; first compound 158.11 µM): 0.243; relative viability (NCI-H460; first compound 500 µM): 0.0072; relative viability (NCI-H322M; first compound 5 µM): 0.577; relative viability (NCI-H322M; first compound 15.81 µM): 0.485; relative viability (NCI-H322M; first compound 50 µM): 0.572; relative viability (NCI-H322M; first compound 158.11 µM): 0.552; relative viability (NCI-H322M; first compound 500 µM): 0.707; relative viability (NCI-H23; first compound 5 µM): 0.95; relative viability (NCI-H23; first compound 15.81 µM): 0.812; relative viability (NCI-H23; first compound 50 µM): 0.873; relative viability (NCI-H23; first compound 158.11 µM): 0.261; relative viability (NCI-H23; first compound 500 µM): 0.0192; relative viability (NCI-H1755; first compound 5 µM): 0.997; relative viability (NCI-H1755; first compound 15.81 µM): 0.996; relative viability (NCI-H1755; first compound 50 µM): 1; relative viability (NCI-H1755; first compound 158.11 µM): 0.969; relative viability (NCI-H1755; first compound 500 µM): 0.232; relative viability (NCI-H1666; first compound 5 µM): 0.629; relative viability (NCI-H1666; first compound 15.81 µM): 0.555; relative viability (NCI-H1666; first compound 50 µM): 0.656; relative viability (NCI-H1666; first compound 158.11 µM): 0.162; relative viability (NCI-H1666; first compound 500 µM): 0.109; relative viability (SK-LU-1; first compound 5 µM): 0.818; relative viability (SK-LU-1; first compound 15.81 µM): 0.692; relative viability (SK-LU-1; first compound 50 µM): 0.752; relative viability (SK-LU-1; first compound 158.11 µM): 0.587; relative viability (SK-LU-1; first compound 500 µM): 0.379; relative viability (PC-3 [JPC-3]; first compound 5 µM): 0.493; relative viability (PC-3 [JPC-3]; first compound 15.81 µM): 0.439; relative viability (PC-3 [JPC-3]; first compound 50 µM): 0.425; relative viability (PC-3 [JPC-3]; first compound 158.11 µM): 0.415; relative viability (PC-3 [JPC-3]; first compound 500 µM): 0.407; relative viability (LU99A; first compound 5 µM): 0.937; relative viability (LU99A; first compound 15.81 µM): 0.918; relative viability (LU99A; first compound 50 µM): 0.887; relative viability (LU99A; first compound 158.11 µM): 0.608; relative viability (LU99A; first compound 500 µM): 0.0424; relative viability (NCI-H2126; first compound 5 µM): 0.723; relative viability (NCI-H2126; first compound 15.81 µM): 0.754; relative viability (NCI-H2126; first compound 50 µM): 0.758; relative viability (NCI-H2126; first compound 158.11 µM): 0.612; relative viability (NCI-H2126; first compound 500 µM): 0.738; relative viability (LOU-NH91; first compound 5 µM): 0.79; relative viability (LOU-NH91; first compound 15.81 µM): 0.722; relative viability (LOU-NH91; first compound 50 µM): 0.834; relative viability (LOU-NH91; first compound 158.11 µM): 0.739; relative viability (LOU-NH91; first compound 500 µM): 0.699; relative viability (LXF-289; first compound 5 µM): 0.842; relative viability (LXF-289; first compound 15.81 µM): 0.881; relative viability (LXF-289; first compound 50 µM): 0.835; relative viability (LXF-289; first compound 158.11 µM): 0.585; relative viability (LXF-289; first compound 500 µM): 0.0115; relative viability (BEN; first compound 5 µM): 0.673; relative viability (BEN; first compound 15.81 µM): 0.577; relative viability (BEN; first compound 50 µM): 0.526; relative viability (BEN; first compound 158.11 µM): 0.502; relative viability (BEN; first compound 500 µM): 0.624; relative viability (NCI-H1395; first compound 5 µM): 1.01; relative viability (NCI-H1395; first compound 15.81 µM): 0.91; relative viability (NCI-H1395; first compound 50 µM): 1.08; relative viability (NCI-H1395; first compound 158.11 µM): 0.773; relative viability (NCI-H1395; first compound 500 µM): 0.894; relative viability (NCI-H650; first compound 5 µM): 1.05; relative viability (NCI-H650; first compound 15.81 µM): 0.913; relative viability (NCI-H650; first compound 50 µM): 1.11; relative viability (NCI-H650; first compound 158.11 µM): 0.84; relative viability (NCI-H650; first compound 500 µM): 0.724; relative viability (NCI-H2023; first compound 5 µM): 0.694; relative viability (NCI-H2023; first compound 15.81 µM): 0.63; relative viability (NCI-H2023; first compound 50 µM): 0.755; relative viability (NCI-H2023; first compound 158.11 µM): 0.0743; relative viability (NCI-H2023; first compound 500 µM): 0.0041; relative viability (NCI-H2170; first compound 5 µM): 0.259; relative viability (NCI-H2170; first compound 15.81 µM): 0.273; relative viability (NCI-H2170; first compound 50 µM): 0.249; relative viability (NCI-H2170; first compound 158.11 µM): 0.261; relative viability (NCI-H2170; first compound 500 µM): 0.188; relative viability (HARA; first compound 5 µM): 0.702; relative viability (HARA; first compound 15.81 µM): 0.678; relative viability (HARA; first compound 50 µM): 0.792; relative viability (HARA; first compound 158.11 µM): 0.521; relative viability (HARA; first compound 500 µM): 0.0307; relative viability (NCI-H1944; first compound 5 µM): 0.818; relative viability (NCI-H1944; first compound 15.81 µM): 0.725; relative viability (NCI-H1944; first compound 50 µM): 0.753; relative viability (NCI-H1944; first compound 158.11 µM): 0.77; relative viability (NCI-H1944; first compound 500 µM): 0.632
